Measurements taken from publication PMC5260423 (Journal of Veterinary Internal Medicine, 2016).

Tests used:
Pseudomonas aeruginosa = assay type: in vivo, dog
[1] = assay type: in vivo, dog; conditions: 7 days, AST 24 hours after last dose
[2] = assay type: in vivo, dog
tubulin = assay type: cell-based, dog
[3] = assay type: in vivo, dog; conditions: 15 mg/kg PO q12 h for 2 weeks
[4] = assay type: in vivo, dog; conditions: mean ± SD; 18 of 20 dogs; single 1 mg/kg oral aspirin; LC‐MS
platelet function [5] = assay type: in vivo, dog
platelet function [6] = assay type: in vivo, dog; conditions: Day 7
platelet function [7] = assay type: in vivo, dog; conditions: day 7; HM5 analyzer
platelet aggregation = assay type: in vivo, dog; conditions: 1 mg/kg orally; 20, 40 and 180 minutes
platelet function [8] = assay type: in vivo, dog; conditions: day 7
platelet function [9] = assay type: in vivo, dog; conditions: day 7; remark: listed apart in the source
[10] = not given; remark: listed apart in the source
[11] = tested on: Anaplasma phagocytophilum; assay type: in vivo, dog
[12] = biological target: Angiotensin converting enzyme (ACE) (Canis lupus familiaris, UniProt A0A8I3S3I6); assay type: in vivo, dog; conditions: enalapril 0.5 mg/kg orally twice a day, 14–21 days
[13] = assay type: in vivo, dog; remark: listed apart in the source
[14] = tested on: hypothalamic‐pituitary‐thyroid axis; assay type: in vivo, dog; conditions: mean dose 0.024 mg/kg every 24 hours for 8 or 16 weeks
[15] = assay type: in vivo, dog; remark: listed apart in the source
[16] = assay type: in vivo, cat
Ixodes scapularis = assay type: in vivo, dog
Borrelia burgdorferi = assay type: in vivo, dog; conditions: single oral dose; negative antibody, PCR, and culture
[17] = tested on: Anaplasma phagocytophilum; assay type: in vivo, dog; conditions: all sarolaner‐treated dogs
[18] = assay type: in vivo, dog; remark: listed apart in the source
[19] = not given; remark: listed apart in the source
[20] = assay type: in vivo, dog; remark: listed apart in the source
[21] = in vivo; cited from earlier work
[22] = assay type: in vivo, dog; remark: listed apart in the source
[23] = 8.5 mg/kg orally every 12 hours

Sequence of Angiotensin converting enzyme (ACE) (A0A8I3S3I6 31-1241 limits assumed): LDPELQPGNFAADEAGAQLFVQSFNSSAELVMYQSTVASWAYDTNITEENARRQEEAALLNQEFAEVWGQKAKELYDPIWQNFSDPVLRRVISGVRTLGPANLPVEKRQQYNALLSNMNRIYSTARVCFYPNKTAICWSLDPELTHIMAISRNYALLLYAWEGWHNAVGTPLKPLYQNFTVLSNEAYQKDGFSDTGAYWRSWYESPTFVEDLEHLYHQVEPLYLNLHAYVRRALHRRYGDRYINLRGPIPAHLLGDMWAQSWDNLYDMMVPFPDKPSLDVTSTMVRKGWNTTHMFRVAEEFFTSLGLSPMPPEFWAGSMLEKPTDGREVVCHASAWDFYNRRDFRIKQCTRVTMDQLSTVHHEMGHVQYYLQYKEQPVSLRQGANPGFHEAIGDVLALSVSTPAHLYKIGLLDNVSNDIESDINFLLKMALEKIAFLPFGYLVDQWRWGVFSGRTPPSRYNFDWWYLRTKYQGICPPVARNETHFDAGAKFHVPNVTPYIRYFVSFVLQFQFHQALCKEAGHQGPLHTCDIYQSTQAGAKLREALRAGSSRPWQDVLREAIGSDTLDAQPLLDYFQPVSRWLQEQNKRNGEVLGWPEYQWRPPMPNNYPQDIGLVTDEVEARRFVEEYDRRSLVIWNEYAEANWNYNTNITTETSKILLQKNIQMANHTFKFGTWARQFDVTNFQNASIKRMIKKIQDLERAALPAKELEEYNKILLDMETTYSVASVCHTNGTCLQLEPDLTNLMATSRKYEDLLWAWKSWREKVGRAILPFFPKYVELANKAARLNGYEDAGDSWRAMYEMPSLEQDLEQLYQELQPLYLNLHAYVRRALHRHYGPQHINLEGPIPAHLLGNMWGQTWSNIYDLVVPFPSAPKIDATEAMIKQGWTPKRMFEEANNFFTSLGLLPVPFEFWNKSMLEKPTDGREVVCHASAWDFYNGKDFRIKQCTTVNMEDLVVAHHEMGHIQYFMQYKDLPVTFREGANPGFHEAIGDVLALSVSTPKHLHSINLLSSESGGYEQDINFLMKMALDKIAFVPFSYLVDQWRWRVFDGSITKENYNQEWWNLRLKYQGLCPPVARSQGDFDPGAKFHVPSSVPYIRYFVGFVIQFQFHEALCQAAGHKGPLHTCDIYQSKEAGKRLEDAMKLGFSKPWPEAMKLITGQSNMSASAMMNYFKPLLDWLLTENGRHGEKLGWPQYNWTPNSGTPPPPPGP

## CC[C@H]1OC(=O)[C@H](C)[C@@H](O[C@H]2C[C@@](C)(OC)[C@@H](O)[C@H](C)O2)[C@H](C)[C@@H](O[C@@H]2O[C@H](C)C[C@H](N(C)C)[C@H]2O)[C@](C)(O)C[C@@H](C)CN(C)[C@H](C)[C@@H](O)[C@]1(C)O [Azithromycin]
Pseudomonas aeruginosa; 1 mL of 50 µg/mL topical SID for 56 days, P ≥ 0.2
  concentration of BHL, HHL and OdDHL in ear canal samples: not affected
Pseudomonas aeruginosa; P = 0.5
  clinical signs and duration of the disease: no effect

## CC(=O)OCC(=O)[C@@]1(O)CC[C@H]2[C@@H]3CCC4=CC(=O)CC[C@]4(C)[C@H]3C(=O)C[C@@]21C [CA, cortisone acetate]
[1]
  mean (±SEM) post AST serum cortisol, 25 mg: 335 ± 13 nmol/L
  mean (±SEM) post AST serum cortisol, 37.5 mg: 326 ± 13 nmol/L
  mean (±SEM) post AST serum cortisol, 50 mg: 308 ± 13 nmol/L
[1]; 14 dogs, placebo 365 ± 13
  mean (±SEM) post AST serum cortisol, 12.5 mg: 347 ± 13 nmol/L

## C[C@]12CCC(=O)C=C1CC[C@@H]1[C@@H]2[C@@H](O)C[C@@]2(C)[C@H]1CC[C@]2(O)C(=O)CO [Hydrocortisone, hydrocortisone]
[2]; [23]
  serum adiponectin concentrations on days 1, 3, 7, 30, 60, and 90 versus day 0: decreased
  serum leptin concentrations on days 1, 3, 7, 30, 60, and 90 versus day 0: significantly increased
[2]; 8.5 mg/kg orally every 12 hours for 90 days, six dogs, CT
  abdominal visceral fat mass on days 30, 60, and 90 versus day 0: increased abdominal visceral fat mass

## COC(=O)Nc1nc2ccc(C(=O)c3ccccc3)cc2[nH]1 [MBZ, mebendazole]
tubulin
  tubulin depolymerization versus untreated control: increased depolymerization of tubulin

## Cc1ncc([N+](=O)[O-])n1CCO [Metronidazole, metronidazole]
[3]
  altered fecal metabolites, out of 469 measured: 98
[3]; P < 0.001
  fecal secondary bile acids: reduction in secondary bile acids

## O=C(O)c1ccccc1O [SA, salicylic acid]
[4]
  maximum plasma concentrations (Cmax): 21 ± 5 µM

## CC(=O)Oc1ccccc1C(=O)O [aspirin, acetylsalicylic acid]
Platelet function [5]; 0.5 mg/kg, q24 h PO, Day 7 versus Day 0
  mean decrease in maximum amplitude, Dose A: 3.8%
Platelet function [5]; 1 mg/kg, q24 h PO, Day 7
  mean decrease in maximum amplitude, Dose B: 41.3%
Platelet function [5]; 2 mg/kg, q24 h PO, Day 7
  mean decrease in maximum amplitude, Dose C: 81.3%
Platelet function [5]; 4 mg/kg, q24 h PO, Day 7
  mean decrease in maximum amplitude, Dose D: 75.9%
Platelet function [5]; 10 mg/kg, q12 h PO, Day 7
  mean decrease in maximum amplitude, Dose E: 87.8%
Platelet function [6]; 0.5 mg/kg, q24 h
  dogs with PFA‐100 closure time >300 seconds, Dose A: 0%
Platelet function [6]; 1 mg/kg, q24 h
  dogs with PFA‐100 closure time >300 seconds, Dose B: 25%
Platelet function [6]; 2 mg/kg, q24 h
  dogs with PFA‐100 closure time >300 seconds, Dose C: 62.5%
Platelet function [6]; 4 mg/kg, q24 h
  dogs with PFA‐100 closure time >300 seconds, Dose D: 87.5%
Platelet function [6]; 10 mg/kg, q12 h
  dogs with PFA‐100 closure time >300 seconds, Dose E: 87.5%
Platelet function [7]
  PW % aggregation with AA, post treatment mean: 7%
Platelet aggregation
  inhibition of platelet aggregation after single dose: did not cause measureable inhibition of platelet aggregation
[4]
  maximum plasma concentrations (Cmax): 0.23 ± 0.21 µM

## COC(=O)[C@H](c1ccccc1Cl)N1CCc2sccc2C1 [clopidogrel]
Platelet function [8]
  MP AUC with AA, post treatment mean: 19 U
  MP AUC with ADP, post treatment mean: 13 U
Platelet function [9]
  PFA closure time, COL‐ADP cartridge, post treatment mean: 185 s
  PFA closure time, P2Y cartridge, post treatment mean: > 300 s
Platelet function [7]
  PW % aggregation with AA, post treatment mean: 4%
  PW % aggregation with ADP, post treatment mean: 9%

## O=P1(N(CCCl)CCCl)NCCCO1 (stereo not drawn) [cyclophosphamide]
10 mg cyclophosphamide daily/every other day
  dogs with stable disease or partial/complete remission >100 days: 74%
10 mg cyclophosphamide daily/every other day, three dogs
  dogs that developed haematuria: 8.6%
13 of 35 dogs
  dogs still alive over one year later: 37%
20 of 35 dogs
  dogs with DFI >6 months: 57%
N = 18
  median survival time (MST), intermediate/high grade sarcomas: 362 days

## COc1cccc2c1C(=O)c1c(O)c3c(c(O)c1C2=O)C[C@@](O)(C(=O)CO)C[C@@H]3O[C@H]1C[C@H](N)[C@H](O)[C@H](C)O1 [doxorubicin]
[10]; IV every 21 days with toceranib 2.75 mg/kg PO every other day, 21 dogs
  MTD of doxorubicin in the combination: 25 mg/m2
[10]; dog, in vivo
  dose limiting toxicity (DLT): neutropenia

## C[C@H]1c2cccc(O)c2C(=O)C2=C(O)[C@]3(O)C(=O)C(C(N)=O)=C(O)[C@@H](N(C)C)[C@@H]3[C@@H](O)[C@@H]21 [doxycycline]
[11]; doxycycline 5 mg/kg PO twice daily for 4 weeks from Week 20
  AP antibodies on Week 48 in Group 1: The only dogs that became AP seronegative by Week 48 were administered doxycycline

## CCOC(=O)[C@H](CCc1ccccc1)N[C@@H](C)C(=O)N1CCC[C@H]1C(=O)O [enalapril]
[12]; baseline 18.05 U/L
  median post therapy ACE activity, dogs homozygous for DNA variant: < 5.0 U/L
[12]; baseline 27.4 U/L
  median post therapy ACE activity, wildtype dogs: < 5.0 U/L

## Cc1oncc1C(=O)Nc1ccc(C(F)(F)F)cc1 [leflunomide]
[13]; 1 of 16
  increased liver enzyme activities: 6.3%
[13]; 2 of 31
  thrombocytopenia: 6.5%
[13]; 2 of 92
  lethargy: 2.2%
[13]; 3 of 92
  suspect blood dyscrasia: 3.3%
[13]; 3 of 92, mean dose 1.79 ± 0.8 mg/kg/day
  diarrhea: 3.3%
[13]; 6 dogs
  discontinued due to possible adverse events: 6.5%
[13]; 12 of 17 dogs (IMPA, IMTP, CH)
  dogs with apparent positive response: 70.5%

## N[C@@H](Cc1cc(I)c(Oc2cc(I)c(O)c(I)c2)c(I)c1)C(=O)O [levothyroxine]
[14]
  mean serum TSH during administration compared to baseline: significantly lower
[14]; 28 dogs
  mean serum T4 and fT4 during administration compared to baseline: significantly higher

## CCOc1cc(N)c(Cl)cc1C(=O)NCC1CN(Cc2ccc(F)cc2)CCO1 (stereo not drawn) [mosapride]
[15]; feeding only 65.0
  median increase of plasma motilin after feeding, Group N: -1.6 pg/mL
[15]; feeding only 173.3
  median increase of plasma motilin after feeding, Group S: 37.0 pg/mL

## COc1ccc2[nH]c([S+]([O-])Cc3ncc(C)c(OC)c3C)nc2c1 (stereo not drawn) [omeprazole]
[16]; 0.83–1.6 mg/kg PO q12 h for 60 days, 6 cats, P < 0.002
  serum gastrin in comparison to placebo: significantly higher
[16]; two cats with intragastric pH capsules
  intragastric pH after cessation: Evidence of gastric hyperacidity

## C[C@]12C=CC(=O)C=C1CC[C@@H]1[C@@H]2[C@@H](O)C[C@@]2(C)[C@H]1CC[C@]2(O)C(=O)CO [prednisolone]
[11]; prednisolone 2 mg/kg PO daily for 2 weeks from Week 24
  clinical abnormalities: Clinical abnormalities were not detected

## CS(=O)(=O)CC(=O)N1CC2(C1)OCc1cc(C3=NO[C@@](c4cc(Cl)c(F)c(Cl)c4)(C(F)(F)F)C3)ccc12 [sarolaner]
Ixodes scapularis; 2 mg/kg oral
  percent reduction in mean live tick counts, Day 29, treated 28 days prior: 90.9%
  percent reduction in mean live tick counts, Day 30, treated 21 days prior: 100%
  percent reduction in mean live tick counts, Day 30, treated 28 days prior: 97.1%
  percent reduction in mean live tick counts, Day 33, treated 21 days prior: 100%
  percent reduction in mean live tick counts, Day 33, treated 28 days prior: 100%
Ixodes scapularis; dog, in vivo
  adverse reactions to treatment: no adverse reactions
Borrelia burgdorferi
  transmission of B. burgdorferi to dogs infested 21 or 28 days after treatment: prevented transmission
[17]
  A. phagocytophilum antibody in treated dogs: negative antibody

## Cc1[nH]c(/C=C2\C(=O)Nc3ccc(F)cc32)c(C)c1C(=O)NCCN1CCCC1 [toceranib phosphate]
[18]; dogs that developed proteinuria
  median time to development of proteinuria: 47 days
[18]; urine protein creatinine ratio
  median UPC in dogs that developed proteinuria: 0.7

## C[C@]12CC[C@H]3[C@@H](CC[C@@]45O[C@@H]4C(O)=C(C#N)C[C@]35C)[C@@H]1CC[C@@H]2O [treatment A, trilostane]
[19]; after three months of treatment (stated for treatment A)
  dogs with complete hair regrowth: 50%
[19]; dog, in vivo
  dogs with partial regrowth: 37.5%

## COc1ccc2[nH]cc(CCNC(C)=O)c2c1 [treatment C, melatonin]
[19]; one of the two dogs
  tolerability: had to be withdrawn due to emesis

## Darbepoetin alfa
[20]; 1/34 dogs
  possible PRCA: 2.9%
[20]; dog, in vivo
  dogs with potential adverse events: 19/34
  longest dosing interval at which a response was sustained: ≤ 21 days
[20]; median starting dose 0.5 mcg/kg, every 7 days in 31/34 dogs
  responders (HCT of 30% achieved): Twenty‐nine of 34 dogs were responders
[20]; range 6 ‐ 106
  median time to response: 28 days
[20]; range 30 – 546
  median survival following initiation of therapy: 118 days
[21]
  cats that responded, of 25: 14 cats

## cyanocobalamin [cbl]
[22]; daily cyanocobalamin tablets ¼ to 1 mg by weight, n = 22, 245 at inclusion
  median serum cbl after 28 days, PO: 970 ng/L
[22]; dog, in vivo
  mean increase in serum cbl at 28 days to baseline, PE: 1465 ± 745 ng/L
[22]; dog, in vivo, po
  mean increase in serum cbl at 28 days to baseline, PO: 888 ± 449 ng/L
[22]; n = 13
  mean serum cbl after 3 months, PE: 803 ± 275 ng/L
[22]; n = 19, 221 ± 43 at inclusion
  mean serum cbl after 28 days, PE: 1686 ± 757 ng/L
[22]; n = 20
  median serum cbl after 3 months, PO: 1334 ng/L
[22]; range 38–997
  median increase in serum cbl after 3 months, PE: 608 ng/L
[22]; range 538–3663
  median increase in serum cbl after 3 months, PO: 970 ng/L
